Results from publication PMC4795541, “A Rapid and Quantitative Flow Cytometry Method for the Analysis of Membrane Disruptive Antimicrobial Activity” (PLoS ONE, 2016).
Where a SMILES comes first, the peptide text is derived from it. [ ]: non-standard residue; d: D form. Phe(ol) = N[C@H](CO)Cc1ccccc1; Aib = CC(C)(N)C(=O)O

How the values were obtained:
Experiment in all cases: MDC, flow cytometry Syto9/PI membrane disruption assay
Conditions in all cases: 90 min incubation, average of 3 assays ± SD
K. pneumoniae ATCC 13883 = assay type: cell-based, Klebsiella pneumoniae
From the text: (§1) The bacterial strains; Fusobacterium nucleatum ATCC 25586, Streptococcus mutans Ingbritt, Staphylococcus aureus (MSSA) ATCC 29213; Staphylococcus aureus (MRSA) ATCC 43300; Enterococcus faecalis ATCC 29212; Enterobacter aerogenes ATCC 13048; Pseudomonas aeruginosa strain PAO1-LAC, ATCC 47085; Klebsiella pneumoniae ATCC 13883; Acinetobacter baumannii strain 2208, ATCC 19606; Escherichia coli ATCC 25922 lyophilised or glycerol stocks were obtained from the culture collection of the Oral Health Cooperative Research Centre, The Melbourne Dental School, University of Melbourne, Australia. These strains were selected for this study as they are widely used in antimicrobial studies and are considered to be important pathogens and major targets for antibiotic resistant studies. […] After overnight incubation, 0.5–2.0 mL of the starter culture was used to inoculate the appropriate fresh broth (200 mL) and growth monitored at 650 nm using a spectrophotometer (model 275E; Perkin-Elmer, Sydney, Australia) with culture purity checked by microscopic examination and culture. Bacteria were harvested during late exponential growth phase and viability and bacteria/mL determined using a BacLight viability kit (Invitrogen, Sydney, Australia) and a Quanta SC-MPL flow cytometer (Beckman coulter Pty, Ltd, Sydney, Australia). […]

E. aerogenes ATCC 13048 = assay type: cell-based, Enterobacter aerogenes
From the text: as §1

E. coli ATCC 25922 = assay type: cell-based, Escherichia coli
From the text: as §1

E. faecalis ATCC 29212 = assay type: cell-based, Enterococcus faecalis
From the text: as §1

[1] = test system: A. baumannii strain 2208, ATCC 19606; assay type: cell-based, Acinetobacter baumannii
From the text: as §1

[2] = test system: P. aeruginosa strain PAO1-LAC, ATCC 47085; assay type: cell-based, Pseudomonas aeruginosa
From the text: as §1

[3] = test system: S. aureus (MSSA) ATCC 29213; assay type: cell-based, Staphylococcus aureus
From the text: as §1

`CC(=O)NC(C)(C)C(=O)N1CCC[C@H]1C(=O)NC(C)(C)C(=O)N[C@@H](C)C(=O)NC(C)(C)C(=O)N[C@@H](C)C(=O)N[C@@H](CCC(N)=O)C(=O)NC(C)(C)C(=O)N[C@H](C(=O)NC(C)(C)C(=O)NCC(=O)N[C@@H](CC(C)C)C(=O)NC(C)(C)C(=O)N1CCC[C@H]1C(=O)N[C@H](C(=O)NC(C)(C)C(=O)NC(C)(C)C(=O)N[C@@H](CCC(=O)O)C(=O)N[C@@H](CCC(N)=O)C(=O)N[C@H](CO)Cc1ccccc1)C(C)C)C(C)C` [Alamethicin] (Ac-[Aib]P[Aib]A[Aib]AQ[Aib]V[Aib]GL[Aib]PV[Aib][Aib]EQ[Phe(ol)]; N-terminus assumed) was tested, and the MDC (K. pneumoniae ATCC 13883) was over 250 µM, the MDC (E. aerogenes ATCC 13048) was over 250 µM and the MDC (E. coli ATCC 25922) was over 250 µM. For the same compound, the MDC (E. faecalis ATCC 29212) was 48.4 ± 10.9 µM, the MDC [1] was over 250 µM and the MDC [2] was over 250 µM. The MDC [3] was 30.3 ± 8.2 µM.
